Data: US20260256792A1, “TREATMENT OF CHRONIC SPONTANEOUS URTICARIA BY ADMINISTERING (R)-2-[3-[4-AMINO-3-(2-FLUORO-4-PHENOXY-PHENYL)PYRAZOLO[3,4-D]PYRIMIDIN-1-YL]PIPERIDINE-1-CARBONYL]-4-METHYL-4-[4-(OXETAN-3-YL)PIPERAZIN-1-YL]PENT-2-ENENITRILE” (priority 2023, published 2026)

System: moderate-to-severe chronic spontaneous urticaria (CSU)
Test: Phase 2 CSU study: urticaria activity score over 7 days (UAS7)
Format: in vivo, human
Conditions: Omalizumab-naïve
Source text: The study comprises a 12 week, randomized, double-blind, placebo-controlled, multi-center, dose-ranging efficacy and safety phase, followed by a 40 week open label extension (OLE) phase (see FIG. 1). The study consists of three phases and an optional OLE phase. […] Clinically, CSU is characterized by the spontaneous and recurrent appearance of pruritic hives. The proposed primary endpoints were the UAS7 at Week 12 in EU and EU reference countries and the ISS7 in the US. Regardless of where a participant was from, all assessments were the same. The UAS7 score is a composite score containing both the HSS7 and the ISS7. This allowed a global assessment of the two key components of urticaria: hives and itch. […] The UAS is a validated PRO measure. […] The daily UAS scores range from 0 to 6 point/day. […] Patients were to complete the UAS using the e-diary. […] The following secondary endpoints were to be analyzed using the same approach as for the primary endpoint: • Change from baseline in UAS7 at Week 4 • Change from baseline in UAS7 at Week 12 (for US and US reference countries) • Change from baseline in ISS7 at Week 12 (except US and US reference countries) • Change from baseline in HSS7 at Week 12 The following responder secondary endpoints were to be analyzed using the Cochran-Mantel-Haenszel test adjusted by region: • Proportion of participants with UAS7<6 at Week 12 • Proportion of participants with UAS7=0 at Week 12 Participants who received selected prohibited medications and/or rescue medications were to be considered as non-responders for time points after the medication usage. For other participants, all available data including those collected during the off-treatment period were to be used to determine the responder/non-responder status. Missing data were to be considered as non-responders.

CC(C)(C=C(C#N)C(=O)N1CCC[C@@H](n2nc(-c3ccc(Oc4ccccc4)cc3F)c3c(N)ncnc32)C1)N1CCN(C2COC2)CC1 [rilzabrutinib, (R)-2-[3-[4-amino-3-(2-fluoro-4-phenoxy-phenyl)pyrazolo[3,4-d]pyrimidin-1-yl]piperidine-1-carbonyl]-4-methyl-4-[4-(oxetan-3-yl)piperazin-1-yl]pent-2-enenitrile]
RRD (%) for rilzabrutinib vs. placebo, UAS7 = 0 (400 mg BID, Week 6): 7.6 %
RRD (%) for rilzabrutinib vs. placebo, UAS7 ≤6 (400 mg BID, Week 6): 8.8 %
Responder n (%), UAS7 = 0 (400 mg BID, Week 6): 4 (11.4) n (%)
Responder n (%), UAS7 ≤6 (400 mg BID, Week 6): 9 (25.7) n (%)
Imputed non-responder n (%), UAS7 = 0 (400 mg BID, Week 7): 2 (5.7) n (%)
Imputed non-responder n (%), UAS7 ≤6 (400 mg BID, Week 7): 2 (5.7) n (%)
Non-responder n (%), UAS7 = 0 (400 mg BID, Week 7): 31 (88.6) n (%)
Non-responder n (%), UAS7 ≤6 (400 mg BID, Week 7): 26 (74.3) n (%)
OR for rilzabrutinib vs. placebo, UAS7 = 0 (400 mg BID, Week 7): 4.254
OR for rilzabrutinib vs. placebo, UAS7 ≤6 (400 mg BID, Week 7): 2.622
RRD (%) for rilzabrutinib vs. placebo, UAS7 = 0 (400 mg BID, Week 7): 8.1 %
RRD (%) for rilzabrutinib vs. placebo, UAS7 ≤6 (400 mg BID, Week 7): 13.6 %
Responder n (%), UAS7 = 0 (400 mg BID, Week 7): 4 (11.4) n (%)
Responder n (%), UAS7 ≤6 (400 mg BID, Week 7): 9 (25.7) n (%)
Imputed non-responder n (%), UAS7 = 0 (400 mg BID, Week 8): 3 (8.6) n (%)
Imputed non-responder n (%), UAS7 ≤6 (400 mg BID, Week 8): 3 (8.6) n (%)
Non-responder n (%), UAS7 = 0 (400 mg BID, Week 8): 29 (82.9) n (%)
Non-responder n (%), UAS7 ≤6 (400 mg BID, Week 8): 22 (62.9) n (%)
OR for rilzabrutinib vs. placebo, UAS7 = 0 (400 mg BID, Week 8): 3.154
OR for rilzabrutinib vs. placebo, UAS7 ≤6 (400 mg BID, Week 8): 2.745
RRD (%) for rilzabrutinib vs. placebo, UAS7 = 0 (400 mg BID, Week 8): 10.7 %
RRD (%) for rilzabrutinib vs. placebo, UAS7 ≤6 (400 mg BID, Week 8): 18.5 %
Responder n (%), UAS7 = 0 (400 mg BID, Week 8): 6 (17.1) n (%)
Responder n (%), UAS7 ≤6 (400 mg BID, Week 8): 13 (37.1) n (%)
Imputed non-responder n (%), UAS7 = 0 (400 mg BID, Week 9): 7 (20.0) n (%)
Imputed non-responder n (%), UAS7 ≤6 (400 mg BID, Week 9): 7 (20.0) n (%)
Non-responder n (%), UAS7 = 0 (400 mg BID, Week 9): 29 (82.9) n (%)
Non-responder n (%), UAS7 ≤6 (400 mg BID, Week 9): 25 (71.4) n (%)
OR for rilzabrutinib vs. placebo, UAS7 = 0 (400 mg BID, Week 9): 2.249
OR for rilzabrutinib vs. placebo, UAS7 ≤6 (400 mg BID, Week 9): 2.797
RRD (%) for rilzabrutinib vs. placebo, UAS7 = 0 (400 mg BID, Week 9): 8.4 %
RRD (%) for rilzabrutinib vs. placebo, UAS7 ≤6 (400 mg BID, Week 9): 15.6 %
Responder n (%), UAS7 = 0 (400 mg BID, Week 9): 6 (17.1) n (%)
Responder n (%), UAS7 ≤6 (400 mg BID, Week 9): 10 (28.6) n (%)
Imputed non-responder n (%), UAS7 = 0 (400 mg BID, Week 10): 8 (22.9) n (%)
Imputed non-responder n (%), UAS7 ≤6 (400 mg BID, Week 10): 8 (22.9) n (%)
Non-responder n (%), UAS7 = 0 (400 mg BID, Week 10): 27 (77.1) n (%)
Non-responder n (%), UAS7 ≤6 (400 mg BID, Week 10): 26 (74.3) n (%)
OR for rilzabrutinib vs. placebo, UAS7 = 0 (400 mg BID, Week 10): 2.159
OR for rilzabrutinib vs. placebo, UAS7 ≤6 (400 mg BID, Week 10): 1.923
RRD (%) for rilzabrutinib vs. placebo, UAS7 = 0 (400 mg BID, Week 10): 10.6 %
RRD (%) for rilzabrutinib vs. placebo, UAS7 ≤6 (400 mg BID, Week 10): 9.9 %
Responder n (%), UAS7 = 0 (400 mg BID, Week 10): 8 (22.9) n (%)
Responder n (%), UAS7 ≤6 (400 mg BID, Week 10): 9 (25.7) n (%)
Imputed non-responder n (%), UAS7 = 0 (400 mg BID, Week 11): 7 (20.0) n (%)
Imputed non-responder n (%), UAS7 ≤6 (400 mg BID, Week 11): 7 (20.0) n (%)
Non-responder n (%), UAS7 = 0 (400 mg BID, Week 11): 30 (85.7) n (%)
Non-responder n (%), UAS7 ≤6 (400 mg BID, Week 11): 25 (71.4) n (%)
OR for rilzabrutinib vs. placebo, UAS7 = 0 (400 mg BID, Week 11): 2.551
OR for rilzabrutinib vs. placebo, UAS7 ≤6 (400 mg BID, Week 11): 1.853
RRD (%) for rilzabrutinib vs. placebo, UAS7 = 0 (400 mg BID, Week 11): 7.4 %
Responder n (%), UAS7 = 0 (400 mg BID, Week 11): 5 (14.3) n (%)
Responder n (%), UAS7 ≤6 (400 mg BID, Week 11): 10 (28.6) n (%)
Imputed non-responder n (%), UAS7 = 0 (400 mg BID, Week 12): 11 (31.4) n (%)
Imputed non-responder n (%), UAS7 ≤6 (400 mg BID, Week 12): 11 (31.4) n (%)
Non-responder n (%), UAS7 = 0 (400 mg BID, Week 12): 30 (85.7) n (%)
Non-responder n (%), UAS7 ≤6 (400 mg BID, Week 12): 28 (80.0) n (%)
OR for rilzabrutinib vs. placebo, UAS7 = 0 (400 mg BID, Week 12): 1.258
OR for rilzabrutinib vs. placebo, UAS7 ≤6 (400 mg BID, Week 12): 1.904
RRD (%) for rilzabrutinib vs. placebo, UAS7 = 0 (400 mg BID, Week 12): 2.6 %
RRD (%) for rilzabrutinib vs. placebo, UAS7 ≤6 (400 mg BID, Week 12): 7.9 %
Responder n (%), UAS7 = 0 (400 mg BID, Week 12): 5 (14.3) n (%)
Responder n (%), UAS7 ≤6 (400 mg BID, Week 12): 7 (20.0) n (%)
Imputed non-responder n (%), UAS7 = 0 (400 mg QPM, Week 1): 0 n (%)
Imputed non-responder n (%), UAS7 ≤6 (400 mg QPM, Week 1): 0 n (%)
Non-responder n (%), UAS7 = 0 (400 mg QPM, Week 1): 37 (100) n (%)
